# Experimental data: US20180340012A1, “METHODS AND CO[…] TO IMPROVING PROPERTIES OF PHARMACOLOGICAL AGENTS TARGETING NERVOUS SYSTEM” (University of Utah Research Foundation, priority 2006, published 2018)
# “Also recorded” adds a separate entry of the source. Where two headings read alike, the source gives them in different places. Square brackets hold non-standard residues; d marks the D form. Ends that are not written are not given here. Peptide text beside a SMILES is read from it. * marks the point of attachment. Fmoc = O=C(OCC1c2ccccc2-c2ccccc21)*; Palmitoyl = CCCCCCCCCCCCCCCC(=O)*; Cha = N[C@@H](CC1CCCCC1)C(=O)O; AMC = Cc1cc(=O)oc2cc(N*)ccc12; Ahx = NCCCCCC(=O)O; Sar = CNCC(=O)O
# Experiments:
# galanin receptors = conditions: truncation of GAL(1-16) fragment; read-out: KD towards galanin receptors; cited from earlier work
# [1] = test system: formalin-induced paw licking; test: Mouse formalin test; type: in vivo; conditions: for Active at (flat phase II): mouse formalin assay of inflammatory pain
# Procedure: An injection of 0.5% formalin is made into the planter region of a mouse right hind paw. This elicits a distinct biphasic behavioral profile characterized by the mouse licking the affected paw. Immediately following the injection the mouse licks the paw for about 10 minutes. This is phase 1 (acute) and is followed by a brief latent period where there is little behavioral activity. A more prolonged period of about 20 to 30 minutes of paw licking ensues which constitutes phase 2 (inflammatory).
# Prior to the administration of the active peptide, drug or vehicle each mouse undergoes a 15-minute conditioning period in one of several 6″ tall plexiglass observation tubes (4″ diameter) that are placed in front of a mirror. […] One hour after treatment, formalin was injected sub-dermally (20 μl; 27 gauge needle) into the plantar surface of the right hind foot. The bevel of the needle is placed facing down toward the skin surface. Following the injection of the formalin each animal is observed for first 2 minutes of each 5 minute epoch for a total of 45 minutes. The cumulative length of licking for each 2 minute time period was measured. An animal receiving the requisite volume of vehicle was alternated with each mouse given GAL-BBB2, Gal 1-16, or gabapentin. Animals were euthanized following the conclusion of the experiment.
# Area under the curve (AUC) determination was made using the GraphPad Prism Version 3.03. Total AUC is calculated for both the test and control groups for both the acute and inflammatory phases. The AUC for individual animals for each phase is also calculated and converted to percentage of total AUC of control. The average percentages and SEM for both the drug treated and control were calculated and tested for significant difference.
# 6 Hz limbic seizures = test: 6 Hz limbic (psychomotor) seizure test; type: in vivo, CF-1 mice; conditions: for % Protection at 1 hour / % Protection at 2 hours / % Protection at 4 hours / % Protection at 1, 2 and 4 hours (result in words): 4 mg/kg; for % Protection at 1 hour / % Protection at 2 hours / % Protection at 4 hours / ED50 in the 6 Hz model / dose in parentheses in Table 14 (ED50) / % Protection at 1, 2 and 4 hours (result in words): i.p.; for % Protection at 1 hour: model not printed at tables, ED50s of same analogs called 6 Hz model; for dose in parentheses in Table 14 (ED50): not labelled in table
# Description: Mice not displaying limbic seizures were considered protected.
# sound-induced seizures = test: Frings audiogenic seizure-susceptible mouse model; type: in vivo
# Procedure: The two modified galanin analogs (GAL-BBB1 and GAL-BBB2) were administered i.p. to a group of Frings audiogenic seizure susceptible mice in a dose of 4 mg/kg. At various times after administration (i.e., 15, 30, 60, 120, and 240 min) each mouse was placed into a cylindrical test chamber fitted with an audio transducer and challenged with a high-intensity sound stimulus (110 dB, 11 KHz for 20 sec). Animals not displaying tonic hind-limb extension were considered protected. […] In a subsequent study, anticonvulsant efficacy was quantitated at the time to peak effect (i.e., 1 h) in a dose-response study.
# The ability of individual modified analogs to prevent seizures induced by sound in the AGS-susceptible Frings mouse model can be assessed at the time of peak effect (White et al., 1992). For this test, individual mice are placed into a plexiglass cylinder (diameter, 15 cm; height, 18 cm) fitted with an audio transducer (Model AS-ZC; FET Research and Development, Salt Lake City, Utah), and exposed to a sound stimulus of 110 decibels (11 KHz) delivered for 20 seconds. Sound-induced seizures are characterized by wild running followed by loss of righting reflex with forelimb and hindlimb tonic extension. Mice not displaying hindlimb tonic extension are considered protected.
# At various times after administration (i.e., 15, 30, 60, 120, and 240 min) each mouse was placed into a cylindrical test chamber fitted with an audio transducer and challenged with a high-intensity sound stimulus (110 dB, 11 KHz for 20 sec).
# [2] = test system: seizures (6 Hz limbic seizure model); conditions: 4 mg/kg, i.p.
# [3] = Toxicity (motor impairment) noted in the SAR screen; type: in vivo, mice; conditions: 4 mg/kg, i.p.
# Description: Minimal toxicity will be identified in mice by the rotarod procedure (Dunham and Miya, 1957). When a mouse is placed on a 1-inch knurled rod that rotates at a speed of 6 r.p.m., the animal can maintain its equilibrium for long periods of time. The animal is considered toxic if it falls off this rotating rod three times during a 1-minute period.
# SAR studies have been carried out in an effort to better understand structural determinants of its activity following systemic administration. […] Presence of the Lys-palm residue was insufficient to produce any observable anticonvulsant activity.
# hGalR3 = target: T1, hGalR3 (Homo sapiens, UniProt O60755); conditions: Table 18; compiled from literature; read-out: Affinity, KD hGalR3; cited from earlier work
# T1 sequence (O60755 1-368): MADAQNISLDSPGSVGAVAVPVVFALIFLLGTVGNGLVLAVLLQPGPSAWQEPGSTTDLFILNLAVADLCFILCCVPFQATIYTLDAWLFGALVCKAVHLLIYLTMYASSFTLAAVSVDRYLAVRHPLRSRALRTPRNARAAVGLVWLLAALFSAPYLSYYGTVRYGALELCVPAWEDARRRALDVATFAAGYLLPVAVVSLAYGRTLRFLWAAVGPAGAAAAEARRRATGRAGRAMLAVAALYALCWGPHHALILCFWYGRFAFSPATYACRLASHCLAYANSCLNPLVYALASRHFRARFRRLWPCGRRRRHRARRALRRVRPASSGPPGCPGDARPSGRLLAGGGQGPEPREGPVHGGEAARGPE
# hGalR2 = target: T2, hGalR2 (Homo sapiens, UniProt O43603); conditions: cited from earlier work
# T2 sequence (O43603 1-387): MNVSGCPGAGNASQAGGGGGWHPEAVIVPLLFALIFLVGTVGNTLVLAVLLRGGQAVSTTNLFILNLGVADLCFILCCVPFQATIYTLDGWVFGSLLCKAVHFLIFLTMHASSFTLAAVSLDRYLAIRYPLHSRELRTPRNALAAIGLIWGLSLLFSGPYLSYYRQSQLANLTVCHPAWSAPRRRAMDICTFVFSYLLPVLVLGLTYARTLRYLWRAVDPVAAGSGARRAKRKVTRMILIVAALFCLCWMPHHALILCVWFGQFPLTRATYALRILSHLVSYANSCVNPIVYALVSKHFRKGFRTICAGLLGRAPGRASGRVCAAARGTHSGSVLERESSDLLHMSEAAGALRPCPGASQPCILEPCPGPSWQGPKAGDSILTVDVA
# [4] = Table 2, reference ligands, same values as Table 18, read-out: affinity toward galanin receptors, GalR2
# [5] = Table 18, compiled from literature, read-out: Affinity, KD hGalR2
compound,measurement,setting,value
GWTLNSAGYL [Fragment 1-10],Kd,galanin receptors,25000 nM
(Sar)WTLNSAGY(Ahx)KK(Lys-P)K [NAX 306-4],activity in second response phase of inflammatory pain assay,[1]; 2.95 mg/kg,very active
same,Active at (flat phase II),[1],2.9 mg/kg (“flat phase II”)
same,% Protection at 1 hour,6 Hz limbic seizures,50%
same,% Protection at 2 hours,6 Hz limbic seizures,0%
same,% Protection at 4 hours,6 Hz limbic seizures,0%
same,ED50 in the 6 Hz model,6 Hz limbic seizures,2.95 mg/kg
same,dose in parentheses in Table 14 (ED50),6 Hz limbic seizures,2.95 mg/kg
Sar-Trp-Thr-Leu-Asn-Ser-Ala-Gly-Tyr-Leu-Leu-Gly-Pro-His-(Lys-palm)-Tle-NH2 [GAL-BBB1],anticonvulsant activity,"sound-induced seizures; 4 mg/kg i.p., 15-240 min, also higher dose of 12 mg/kg",not active at any time point tested
(Sar)WTLNSAGYLLGPRR(Lys-P)R [NAX 1205-3],% Protection at 1 hour,6 Hz limbic seizures,100%
same,% Protection at 2 hours,6 Hz limbic seizures,75%
same,% Protection at 4 hours,6 Hz limbic seizures,0%
(Sar)WTLNSAGYLLGPHA(Lys-P) [306-5],"% Protection at 1, 2 and 4 hours (result in words)",6 Hz limbic seizures,Not active
GWTLNSAGY [Fragment 1-9],Kd,galanin receptors,100000 nM
[Ahx]GGWAGGDFSGE,% Protection at 30 min,[2],50%
same,% Protection after 2 hours,[2]; 2 hours,(100% after
CC(C)C[C@H](NC(=O)[C@H](CC(C)C)NC(=O)[C@H](Cc1ccc(O)cc1)NC(=O)CNC(=O)[C@H](C)NC(=O)[C@H](CO)NC(=O)[C@H](CC(N)=O)NC(=O)[C@H](CC(C)C)NC(=O)[C@@H](NC(=O)[C@H](Cc1c[nH]c2ccccc12)NC(=O)CN)[C@@H](C)O)C(=O)NCC(=O)N1CCC[C@H]1C(=O)N[C@@H](Cc1c[nH]cn1)C(=O)O [Fragment 1-14],Kd,galanin receptors,150 nM
CCCCCCCCCCCCCCCC(=O)NCCCC[C@H](NC(=O)[C@H](CCCCN)NC(=O)[C@H](CCCCN)NC(=O)[C@H](CCCCN)NC(=O)[C@H](CCCCN)NC(=O)[C@H](CC(C)C)NC(=O)[C@H](CC(C)C)NC(=O)[C@H](Cc1ccc(O)cc1)NC(=O)CNC(=O)[C@H](C)NC(=O)[C@H](CO)NC(=O)[C@H](CC(N)=O)NC(=O)[C@H](CC(C)C)NC(=O)[C@@H](NC(=O)[C@H](Cc1c[nH]c2ccccc12)NC(=O)CNC)[C@@H](C)O)C(=O)N[C@@H](CCCCN)C(N)=O [NAX 1205-4] (H-[Sar]WTLNSAGYLLKKKKK(Palmitoyl)K-NH2),toxicity (motor impairment),[3],toxic
CNCC(=O)N[C@@H](Cc1c[nH]c2ccccc12)C(=O)N[C@H](C(=O)N[C@@H](CC(C)C)C(=O)N[C@@H](CC(N)=O)C(=O)N[C@@H](CO)C(=O)N[C@@H](C)C(=O)NCC(=O)N[C@@H](Cc1ccc(O)cc1)C(=O)N[C@@H](CC(C)C)C(=O)N[C@@H](CC(C)C)C(=O)NCC(=O)N1CCC[C@H]1C(=O)N[C@@H](CCCCN)C(=O)N[C@@H](CCCCN)C(=O)N[C@@H](CCCCN)C(=O)N[C@@H](CCCCN)C(N)=O)[C@@H](C)O [NAX 1105-2],toxicity (motor impairment),[3],toxicity (motor impairment); also recorded: toxic
same,% Protection at 1 hour,6 Hz limbic seizures,30%
same,% Protection at 2 hours,6 Hz limbic seizures,0%
same,% Protection at 4 hours,6 Hz limbic seizures,0%
same,ED50 in the 6 Hz model,6 Hz limbic seizures,3.8 mg/kg
same,dose in parentheses in Table 14 (ED50),6 Hz limbic seizures,3.7 mg/kg
(Sar)WTLNSAGYKK(Lys-P)K [NAX 306-3],Active at (flat phase II),[1],2.7 mg/kg (“flat phase II”)
"DPhe-Cys-Phe-DTrp-Lys-Thr-Cys-Thr-NH2 [DPhe-Cys-Phe-DTrp-Lys-Thr-Cys-Thr-N2, reference compound]",% Protection at 30 min,[2],50%
"(Sar)WTLNSAGYLLGPDKDK(Lys-P)DK (XWTLNSAGYLLGPXXXX; N-terminal Sar; C-terminal (Lys-P)DK; MOD_RES 1 Xaa = MeGly; VARIANT 14, 15, 17 Xaa = D-Lys; MOD_RES 16 Xaa = Lys-palm) [NAX 1205-2]",% Protection at 1 hour,6 Hz limbic seizures,100%
same,% Protection at 2 hours,6 Hz limbic seizures,50%
same,% Protection at 4 hours,6 Hz limbic seizures,75%
same,ED50 in the 6 Hz model,6 Hz limbic seizures,1.2 mg/kg
same,dose in parentheses in Table 14 (ED50),6 Hz limbic seizures,1.2 mg/kg
CC(C)C[C@H](NC(=O)[C@H](CC(C)C)NC(=O)[C@H](Cc1ccc(O)cc1)NC(=O)CNC(=O)[C@H](C)NC(=O)[C@H](CO)NC(=O)[C@H](CC(N)=O)NC(=O)[C@H](CC(C)C)NC(=O)[C@@H](NC(=O)[C@H](Cc1c[nH]c2ccccc12)NC(=O)CN)[C@@H](C)O)C(=O)NCC(=O)O [Fragment 1-12],Kd,galanin receptors,3000 nM
"GWTLNSAGYLLGPHAV [Gal(1-16), reference compound]",activity in formalin test,[1]; 20 mg/kg i.p.,inactive
same,anticonvulsant activity,sound-induced seizures; 20 mg/kg i.p.,inactive
same,"% Protection at 1, 2 and 4 hours (result in words)",6 Hz limbic seizures,Not active
same,Kd,hGalR3,6.5 nM
same,Kd,hGalR2; [4],8.3 nM
same,Kd,hGalR2; [5],8.3 nM
"CC[C@@H](C(N)=O)N1CCCC1=O [Levetiracetam, reference compound]",maximum protection against 6 Hz limbic seizures,"6 Hz limbic seizures; 6 Hz (44 mA), 1000 mg/kg, alone",≤ 50%
"WAGGDFSGE [DSIP, reference compound]",% Protection at 30 min,[2],0%
same,activity against 6 Hz (22 mA) limbic seizures,"6 Hz limbic seizures; administered directly into the ventricular space, 22 mA",effective
Cc1cc(=O)oc2cc(NC(=O)[C@H](CCCCN)NC(=O)[C@H](CC3CCCCC3)NC(=O)OCC3c4ccccc4-c4ccccc43)ccc12 [Galnon] (Fmoc-[Cha]-Lys-{AMC}),Kd,hGalR2; [4],24000 nM
same,Kd,hGalR2; [5],24000 nM
Lys-Lys-Lys(palm)-Lys-Ahx-DPhe-Cys-Phe-DTrp-Lys-Thr-Cys-Thr-NH2,% Protection at 30 min,[2],100%
WTLNSAGYLLGPKK(Lys-P)K (not fully specified (C-terminus)) [NAX 1205-1],% Protection at 1 hour,6 Hz limbic seizures,50%
same,% Protection at 2 hours,6 Hz limbic seizures,50%
same,% Protection at 4 hours,6 Hz limbic seizures,0%
same,ED50 in the 6 Hz model,6 Hz limbic seizures,5.7 mg/kg
same,dose in parentheses in Table 14 (ED50),6 Hz limbic seizures,5.7 mg/kg
